From patent US9730447B2, “Fungicidal amides” (E I DU PONT DE NEMOURS AND COMPANY, priority 2013, dated 2017)
Marks after values point to notes of the source that are not given here.

Legend:
Assay type in all cases: in vivo
Botrytis cinerea = test: Test A: preventive spray on tomato seedlings, Botrytis cinerea (gray mold), visual disease rating; conditions: 100 = 100% disease control, 0 = no control relative to controls, unmarked values; for pest or weed control at 40 µg/mL, 160 g/ha: 96 h
From the text: (§1) General protocol for preparing test suspensions for Tests A-E: the test compounds were first dissolved in acetone in an amount equal to 3% of the final volume and then suspended at the desired concentration (in ppm) in acetone and purified water (50/50 mix by volume) containing 250 ppm of the surfactant Trem® 014 (polyhydric alcohol esters). The resulting test suspensions were then used in Tests A-E. Compounds were sprayed with either a 40 ppm or 10 ppm (*) test suspension to the point of run-off on the test plants which is the equivalent of a rate of 160 g ai/ha or 40 g ai/ha, respectively.
The test suspension was sprayed to the point of run-off on tomato seedlings. The following day the seedlings were inoculated with a spore suspension of Botrytis cinerea (the causal agent of gray mold on many crops) and incubated in a saturated atmosphere at 20° C. for 48 h, and moved to a growth chamber at 27° C. for 2 days, after which time visual disease ratings were made.
(§2) Results for Tests A-E are given in Table A. In the Table, a rating of 100 indicates 100% disease control and a rating of 0 indicates no disease control (relative to the controls). A dash (-) indicates no test results.

[1] = tested on: Stagonospora nodorum (also known as Septoria nodorum); test: Test B: preventive spray on wheat seedlings, Stagonospora nodorum (wheat glume blotch), visual disease rating
From the text: as §1
(§3) The test suspension was sprayed to the point of run-off on wheat seedlings. The following day the seedlings were inoculated with a spore suspension of Stagonospora nodorum (also known as Septoria nodorum; the causal agent of wheat glume blotch) and incubated in a saturated atmosphere at 20° C. for 48 h, and then moved to a growth chamber at 20° C. for 6 days, after which time visual disease ratings were made.
as §2

[2] = tested on: Puccinia recondite f. sp. tritici; test: Test D: preventive spray on wheat seedlings, Puccinia recondite f. sp. tritici (wheat leaf rust), visual disease rating
From the text: as §1
as §3, with “Puccinia recondite f. sp. tritici; (the” for “Stagonospora nodorum (also known as Septoria nodorum; the”, “leaf rust)” for “glume blotch)”, “24” for “48”
as §2

[3] = tested on: Erysiphe graminis f. sp. tritici; test: Test E: preventive spray on wheat seedlings, Erysiphe graminis f. sp. tritici (wheat powdery mildew), visual disease rating
From the text: as §1
The test suspension was sprayed to the point of run-off on wheat seedlings. The following day the seedlings were inoculated with a spore dust of Erysiphe graminis f. sp. tritici, (the causal agent of wheat powdery mildew) and incubated in a growth chamber at 20° C. for 8 days, after which time visual disease ratings were made.
as §2

Septoria tritici = test: Test C: preventive spray on wheat seedlings, Septoria tritici (wheat leaf blotch), visual disease rating
From the text: as §1
The test suspension was sprayed to the point of run-off on wheat seedlings. The following day the seedlings were inoculated with a spore suspension of Septoria tritici (the causal agent of wheat leaf blotch) and incubated in a saturated atmosphere at 24° C. for 48 h, and then moved to a growth chamber at 20° C. for 21 days, after which time visual disease ratings were made.
as §2

[4] = 100 = 100% disease control, 0 = no control, unmarked values
[5] = values marked with asterisk (*), meaning not given

SMILES | Test B disease control rating [1, 4] | Test D disease control rating [2, 4] | Test E disease control rating [3, 4] | Test C disease control rating (Septoria tritici; [4]) | other results
O=C(Nc1ccccc1-c1cnc(-n2ccc(C(F)(F)F)n2)cn1)c1ncccc1C(F)(F)F [Compound 3, 3-(trifluoromethyl)-N-[2-[5-[3-(trifluoromethyl)-1H-pyrazol-1-yl]-2-pyrazinyl]phenyl]-2-pyridinecarboxamide] | – | – | – | – | pest or weed control at 40 µg/mL, 160 g/ha (Botrytis cinerea): 0%
O=C(Nc1ccccc1-c1cnc(-n2ccc(C(F)(F)F)n2)c(Cl)c1)c1ncccc1C(F)(F)F [Compound 34, N-[2-[5-chloro-6-[3-(trifluoromethyl)-1H-pyrazol-1-yl]-3-pyridinyl]phenyl]-3-(trifluoromethyl)-2-pyridinecarboxamide] | – | – | – | – | pest or weed control at 40 µg/mL, 160 g/ha (Botrytis cinerea): 96%
O=C(Nc1ccccc1-c1ccc(-n2ccc(C(F)(F)F)n2)nn1)c1ncccc1C(F)(F)F [Compound 59, 3-(trifluoromethyl)-N-[2-[6-[3-(trifluoromethyl)-1H-pyrazol-1-yl]-3-pyridazinyl]phenyl]-2-pyridinecarboxamide] | – | – | – | – | pest or weed control at 40 µg/mL, 160 g/ha (Botrytis cinerea): 0%
O=C(Nc1ccccc1-c1cnc(-n2cc(Cl)cn2)c(Cl)c1)c1ncccc1C(F)(F)F [Compound 61, N-[2-[5-chloro-6-[4-chloro-1H-pyrazol-1-yl]-3-pyridinyl]phenyl]-3-(trifluoromethyl)-2-pyridinecarboxamide] | – | – | – | – | pest or weed control at 40 µg/mL, 160 g/ha (Botrytis cinerea): 41%
Cn1cc(C(=O)Nc2ccccc2-c2cnc(-n3ccc(C(F)(F)F)n3)c(F)c2)c(C(F)F)n1 [Compound 68, 3-(difluoromethyl)-N-[2-[5-fluoro-6-[3-(trifluoromethyl)-1H-pyrazol-1-yl]-3-pyridinyl]phenyl]-1-methyl-1H-pyrazole-4-carboxamide] | – | – | – | – | pest or weed control at 40 µg/mL, 160 g/ha (Botrytis cinerea): 94%
CC(Cc1ccc(-n2ccc(C(F)(F)F)n2)nc1)NC(=O)c1cn(C)nc1C(F)F (centres unmarked) [Compound 83, 3-(difluoromethyl)-1-methyl-N-[1-methyl-2-[6-[3-(trifluoromethyl)-1H-pyrazol-1-yl]-3-pyridinyl]ethyl]-1H-pyrazole-4-carboxamide] | – | – | – | – | pest or weed control at 40 µg/mL, 160 g/ha (Botrytis cinerea): 99%
CC(Cc1ccc(-n2ccc(C(F)(F)F)n2)nc1)NC(=O)c1ncccc1C(F)(F)F (centres unmarked) [Compound 84, N-[1-methyl-2-[6-[3-(trifluoromethyl)-1H-pyrazol-1-yl]-3-pyridinyl]ethyl]-3-(trifluoromethyl)-2-pyridinecarboxamide] | – | – | – | – | pest or weed control at 40 µg/mL, 160 g/ha (Botrytis cinerea): 66%
Cn1cc(C(=O)Nc2ccccc2-c2ccc(-n3ccc(-c4cc(F)cc(F)c4)n3)nc2)c(C(F)F)n1 [compound 89] | 0% | 100% | 79% | – | Test A disease control rating (Botrytis cinerea): 75%
Cn1cc(C(=O)Nc2ccccc2-c2ccc(-n3ccc(-c4ccccc4F)n3)nc2)c(C(F)F)n1 [compound 90] | 46% | 100% | 72% | – | Test A disease control rating (Botrytis cinerea): 93%
COc1cc(OC)cc(-c2ccn(-c3ccc(-c4ccccc4NC(=O)c4cn(C)nc4C(F)F)cn3)n2)c1 [compound 91] | 33% | 100% | 56% | – | Test A disease control rating (Botrytis cinerea): 87%
CC1=C(C(=O)Nc2ccccc2-c2cnc(-n3ccc(C(F)(F)F)n3)c(F)c2)S(=O)(=O)CCO1 [compound 114] | 0% | 100% | 64% | 84% | –
O=C(Nc1ccccc1-c1cnc(-n2ccc(C(F)(F)F)n2)c(F)c1)c1nccnc1C(F)(F)F [compound 115] | 100% | 100% | 100% | 98% | –
O=C(Nc1ccccc1-c1cnc(-n2ccc(C(F)(F)F)n2)c(F)c1)c1ncsc1C(F)(F)F [compound 126] | 99% | 100% | 99% | 99% | –
Cn1cc(C(=O)Nc2ccccc2-c2cnc(-n3ccc(C(F)(F)F)n3)c(C#N)c2)c(C(F)(F)F)n1 [compound 127] | 0% | – | – | – | Test C disease control rating (Septoria tritici; [5]): 62* %; Test D disease control rating [2, 5]: 100* %; Test E disease control rating [3, 5]: 40* %
COc1cccc(C2CC(c3ccc(-c4ccccc4NC(=O)c4ncccc4C(F)(F)F)cn3)=NN2C)c1 (centres unmarked) [compound 130] | 11% | 97% | 69% | 89% | –
O=C(Nc1ccccc1-c1cnc(-n2ccc(C(F)(F)F)n2)c(Cl)c1)c1ccccc1C(F)F [compound 132] | 0% | 99% | 98% | 99% | –
O=C(Nc1ccccc1-c1cnc(-n2ccc(C(F)(F)F)n2)c(F)c1)c1nccnc1Cl [compound 149] | 95% | 99% | 98% | 97% | –
Cn1cc(C(=O)Nc2ccccc2-c2cnc(-n3ccc(C(F)(F)F)n3)c(F)c2)c(C(F)(F)F)n1 [compound 150] | 92% | 100% | 99% | 98% | –
Cc1nc(C(F)(F)F)c(C(=O)Nc2ccccc2-c2cnc(-n3ccc(C(F)(F)F)n3)c(F)c2)s1 [compound 151] | 0% | 100% | 98% | 98% | –
Cc1ccsc1C(=O)Nc1ccccc1-c1cnc(-n2ccc(C(F)(F)F)n2)c(F)c1 [compound 152] | 99% | 100% | 99% | 99% | –
Cc1ccsc1C(=O)Nc1ccccc1-c1cnc(-n2ccc(C(F)(F)F)n2)c(C#N)c1 [compound 154] | – | – | – | – | Test B disease control rating [1, 5]: 59* %; Test C disease control rating (Septoria tritici; [5]): 94* %; Test D disease control rating [2, 5]: 100* %; Test E disease control rating [3, 5]: 0* %
O=C(Nc1ccccc1-c1cnc(-n2ccc(C(F)F)n2)c(F)c1)c1ncccc1C(F)(F)F [compound 161] | 100% | 100% | 99% | 95% | –
Cn1cc(C(=O)Nc2ccccc2-c2cnc(-n3ccc(C(F)F)n3)c(F)c2)c(C(F)F)n1 [compound 162] | 68% | 100% | 99% | 98% | –
Cc1sccc1C(=O)Nc1ccccc1-c1cnc(-n2ccc(C(F)(F)F)n2)c(F)c1 [compound 163] | 79% | 100% | 96% | 97% | –
O=C(Nc1ccccc1-c1cnc(-n2ccc(C(F)(F)F)n2)c(Cl)c1)c1scnc1C(F)(F)F [compound 165] | 0% | – | – | – | Test C disease control rating (Septoria tritici; [5]): 99* %; Test D disease control rating [2, 5]: 98* %; Test E disease control rating [3, 5]: 87* %
O=C(Nc1ccccc1-c1cnc(-n2ccc(C(F)(F)F)n2)c(Cl)c1)c1sccc1C(F)(F)F [compound 167] | – | – | – | – | Test B disease control rating [1, 5]: 98* %; Test C disease control rating (Septoria tritici; [5]): 100* %; Test D disease control rating [2, 5]: 100* %; Test E disease control rating [3, 5]: 94* %
O=C(Nc1ccccc1-c1cnc(-n2ccc(C(F)(F)F)n2)c(Cl)c1)c1sccc1Cl [compound 168] | – | – | – | – | Test B disease control rating [1, 5]: 0* %; Test C disease control rating (Septoria tritici; [5]): 95* %; Test D disease control rating [2, 5]: 99* %; Test E disease control rating [3, 5]: 64* %
Cc1scnc1C(=O)Nc1ccccc1-c1cnc(-n2ccc(C(F)(F)F)n2)c(Cl)c1 [compound 170] | – | – | – | – | Test B disease control rating [1, 5]: 50* %; Test C disease control rating (Septoria tritici; [5]): 74* %; Test D disease control rating [2, 5]: 0* %; Test E disease control rating [3, 5]: 0* %
O=C(Nc1ccccc1-c1cnc(-n2ccc(C(F)(F)F)n2)c(Cl)c1)c1sccc1F [compound 176] | – | – | – | – | Test B disease control rating [1, 5]: 0* %; Test C disease control rating (Septoria tritici; [5]): 93* %; Test D disease control rating [2, 5]: 0* %; Test E disease control rating [3, 5]: 0* %
